Measurements published in US8614201B2 (Janssen Pharmaceutica NV, priority 2009, dated 2013).

Target: Human TRPA1 (Homo sapiens, UniProt O75762)
Assay: Assay 1: In vitro cellular testing of TRPA1 modulation (CHO-TREx, Fluo-3 calcium fluorescence, AITC agonist)
Format: cell-based
Set-up: expressed in transfected cells; host or cells: CHO-TREx cells (Invitrogen), vector pcDNA4/TO
Conditions: CHO-TREx cells expressing human TRPA1; Fluo-3 fluorescence (FLIPR/Tetra); agonist 15 μM allyl isothiocyanate (AITC); 30 minute antagonist incubation
Summary of the method: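 Antagonist potency is the 50% reduction of the AITC (15 μM) calcium response, Hill-fitted against no-antagonist and 10 μM ruthenium red controls. Fluo-3-loaded (4 μM) CHO-TREx cells with tetracycline-inducible human TRPA1 got compound in HEPES saline pH 7.4 for 30 min, usually from 10 μM in three-fold dilutions.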

Sequence of Human TRPA1 (O75762 whole entry): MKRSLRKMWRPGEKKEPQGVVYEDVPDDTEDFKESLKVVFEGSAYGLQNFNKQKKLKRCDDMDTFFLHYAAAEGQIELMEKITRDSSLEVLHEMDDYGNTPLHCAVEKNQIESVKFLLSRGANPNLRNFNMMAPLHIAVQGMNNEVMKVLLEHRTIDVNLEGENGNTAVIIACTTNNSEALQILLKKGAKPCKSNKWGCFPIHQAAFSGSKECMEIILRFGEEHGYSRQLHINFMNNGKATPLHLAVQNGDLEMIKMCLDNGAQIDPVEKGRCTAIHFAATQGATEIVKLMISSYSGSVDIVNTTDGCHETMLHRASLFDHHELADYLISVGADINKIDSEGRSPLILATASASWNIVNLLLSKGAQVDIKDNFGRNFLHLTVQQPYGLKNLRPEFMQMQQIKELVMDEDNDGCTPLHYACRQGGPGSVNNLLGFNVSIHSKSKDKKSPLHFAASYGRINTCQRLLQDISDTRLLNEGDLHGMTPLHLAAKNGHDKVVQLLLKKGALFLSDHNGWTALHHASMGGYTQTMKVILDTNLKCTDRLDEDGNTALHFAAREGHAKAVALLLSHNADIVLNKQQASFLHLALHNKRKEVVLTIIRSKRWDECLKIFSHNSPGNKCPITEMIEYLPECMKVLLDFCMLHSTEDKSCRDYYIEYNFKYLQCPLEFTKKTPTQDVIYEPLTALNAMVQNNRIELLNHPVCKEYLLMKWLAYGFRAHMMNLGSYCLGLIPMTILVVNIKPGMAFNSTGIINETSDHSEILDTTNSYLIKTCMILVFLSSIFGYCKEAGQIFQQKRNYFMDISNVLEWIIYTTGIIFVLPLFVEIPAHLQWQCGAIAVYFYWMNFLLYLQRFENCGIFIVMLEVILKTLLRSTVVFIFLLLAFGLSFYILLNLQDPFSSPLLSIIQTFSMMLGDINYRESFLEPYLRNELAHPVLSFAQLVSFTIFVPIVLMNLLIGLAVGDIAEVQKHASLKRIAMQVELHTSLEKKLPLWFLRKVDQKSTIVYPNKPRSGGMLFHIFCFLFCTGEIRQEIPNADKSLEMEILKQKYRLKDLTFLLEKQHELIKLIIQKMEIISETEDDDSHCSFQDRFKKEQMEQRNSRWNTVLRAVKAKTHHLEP

SMILES	IC50 [nM]
NS(=O)(=O)c1ccc(-c2cccc(CNC(=O)[C@@H]3CCCN3S(=O)(=O)c3ccc(F)cc3)c2)cc1 [Example 78, 1-(4-Fluorobenzenesulfonyl)-pyrrolidine-2S-carboxylic acid (4′-sulfamoyl-biphenyl-3-ylmethyl)-amide]	6050
Cc1ccc(S(=O)(=O)N2CCC[C@H]2C(=O)NCc2cc(-c3ccc(C(F)(F)F)cc3)ncn2)cc1 [Example 161, 1-(Toluene-4-sulfonyl)-pyrrolidine-2S-carboxylic acid [6-(4-trifluoromethylphenyl)-pyrimidin-4-ylmethyl]-amide]	137
O=C(NCc1cc(NCc2ccccn2)nc(-c2ccc(C(F)(F)F)cc2)c1)[C@@H]1CC(F)(F)CN1S(=O)(=O)c1ccc(Cl)s1 [Example 382, 1-[(5-Chlorothiophen-2-yl)sulfonyl]-4,4-difluoro-N-({2-[(pyridin-2-ylmethyl)amino]-6-[4-(trifluoromethyl)phenyl]pyridin-4-yl}methyl)-L-prolinamide]	5090
CC(Nc1cc(CNC(=O)[C@@H]2CC(F)(F)CN2S(=O)(=O)c2ccc(F)cc2)cc(-c2ccc(C(F)(F)F)cc2)n1)c1ccccc1 (stereo partly drawn) [Example 410, 4,4-Difluoro-1-[(4-fluorophenyl)sulfonyl]-N-({2-[(1-phenylethyl)amino]-6-[4-(trifluoromethyl)phenyl]pyridin-4-yl}methyl)-L-prolinamide]	1260
O=C(NCc1cc(-c2ccc(C(F)(F)F)cc2)ncn1)[C@@H]1CCCN1S(=O)(=O)c1ccsc1 [Example 172, 1-(Thiophene-3-sulfonyl)-pyrrolidine-2S-carboxylic acid [6-(4-trifluoromethyl-phenyl)-pyrimidin-4-ylmethyl]-amide]	11
O=C(NCc1cccc(-c2ccc(Cl)nc2)c1)[C@@H]1CCCN1S(=O)(=O)c1ccc(F)cc1 [Example 83, 1-(4-Fluoro-benzenesulfonyl)-pyrrolidine-2S-carboxylic acid 3-(6-chloro-pyridin-3-yl)-benzylamide]	73
N#Cc1ccc(S(=O)(=O)N2CCC[C@H]2C(=O)NCc2cc(-c3ccc(C(F)(F)F)cc3)ncn2)cc1 [Example 159, 1-(4-Cyanobenzenesulfonyl)-pyrrolidine-2S-carboxylic acid [6-(4-trifluoromethylphenyl)-pyrimidin-4-ylmethyl]-amide]	1090
O=C(NCc1cc(-c2ccc(C(F)(F)F)cc2)nc(N2CCCC2)c1)[C@@H]1CCCN1S(=O)(=O)c1ccc(F)cc1 [Example 317, 1-(4-Fluoro-benzenesulfonyl)-pyrrolidine-S2-carboxylic acid [2-pyrrolidin-1-yl-6-(4-trifluoromethyl-phenyl)-pyridin-4-ylmethyl]-amide]	16
O=C(NCc1cc(-c2ccc(OC(F)(F)F)cc2)ccn1)[C@@H]1CCCN1S(=O)(=O)c1ccc(Cl)s1 [Example 138, 1-(5-Chloro-thiophene-2-sulfonyl)-pyrrolidine-2S-carboxylic acid [4-(4-trifluoromethoxy-phenyl)-pyridin-2-ylmethyl]-amide]	17
O=C(NCc1cc(NCc2ccccn2)nc(-c2ccc(C(F)(F)F)cc2)c1)[C@@H]1C=CCN1S(=O)(=O)c1ccc(F)cc1 [Example 380, (2S)-1-[(4-Fluorophenyl)sulfonyl]-N-({2-[(pyridin-2-ylmethyl)amino]-6-[4-(trifluoromethyl)phenyl]pyridin-4-yl}methyl)-2,5-dihydro-1H-pyrrole-2-carboxamide]	523
O=C(NCc1cc(-c2ccc(C(F)(F)F)cc2)nc(N2CCN(Cc3ccncc3)CC2)c1)[C@@H]1CCCN1S(=O)(=O)c1ccc(F)cc1 [Example 342, 1-[(4-Fluorophenyl)sulfonyl]-N-({2-[4-(pyridin-4-ylmethyl)piperazin-1-yl]-6-[4-(trifluoromethyl)phenyl]pyridin-4-yl}methyl)-L-prolinamide]	296
O=C(NCc1cc(-c2ccc(C(F)(F)F)cc2)ncn1)[C@@H]1CCCN1S(=O)(=O)c1ccc(F)cc1 [Example 11, 1-(4-Fluoro-benzenesulfonyl)-pyrrolidine-2S-carboxylic acid [6-(4-trifluoromethyl-phenyl)-pyrimidin-4-ylmethyl]-amide]	65
O=C(NCc1nccc(-c2ccc(C(F)(F)F)cc2)n1)[C@@H]1CCCN1S(=O)(=O)c1ccc(Cl)s1 [Example 186]	227
O=C(NCc1cc(-c2ccc(C(F)(F)F)cc2)ncn1)[C@@H]1CCCN1S(=O)(=O)c1ccc(Br)cc1 [Example 147, 1-(4-Bromobenzenesulfonyl)-pyrrolidine-2S-carboxylic acid [6-(4-trifluoromethylphenyl)-pyrimidin-4-ylmethyl]-amide]	92
Cn1ccc2cc(-c3cccc(CNC(=O)[C@@H]4CCCN4S(=O)(=O)c4ccc(F)cc4)c3)ccc21 [Example 96, 1-(4-Fluoro-benzenesulfonyl)-pyrrolidine-2S-carboxylic acid 3-(1-methyl-1H-indol-5-yl)-benzylamide]	432
O=C(NCc1cc(-c2ccc(C(F)(F)F)cc2)nc(N2CCCCC2)c1)[C@@H]1CCCN1S(=O)(=O)c1ccc(Cl)s1 [Example 319, 1-(5-Chloro-thiophene-2-sulfonyl)-pyrrolidine-S2-carboxylic acid [6′-(4-trifluoromethyl-phenyl)-3,4,5,6-tetrahydro-2H-[1,2′]bipyridinyl-4′-ylmethyl]-amide]	21
O=C(NCc1cccc(-c2ccccc2C(F)(F)F)c1)[C@@H]1CCCN1S(=O)(=O)c1ccc(F)cc1 [Example 67, 1-(4-Fluorobenzenesulfonyl)-pyrrolidine-2S-carboxylic acid (2′-trifluoromethylbiphenyl-3-ylmethyl)-amide]	515
C[C@H](NC(=O)[C@@H]1CCCN1S(=O)(=O)c1ccc(Cl)s1)c1cccc(-c2ccc(C(F)(F)F)cc2)c1 [Example 115, (1S,2S)-1-(5-Chloro-thiophene-2-sulfonyl)-pyrrolidine-2-carboxylic acid [1-(4′-trifluoromethylbiphenyl-3-yl)ethyl]-amide]	15
O=C(NCc1cccc(-c2ccc(Cl)cn2)c1)[C@@H]1CCCN1S(=O)(=O)c1ccc(F)cc1 [Example 91, 1-(4-Fluorobenzenesulfonyl)-pyrrolidine-2S-carboxylic acid 3-(5-chloropyridin-2-yl)-benzylamide]	175

Second part, the molecule after the results:

IC50 [nM]	SMILES
4710	O=C(NCc1cc(-c2ccc(C(F)(F)F)cc2)nc(N2CCN(Cc3ccccc3)CC2)c1)[C@@H]1CC(F)(F)CN1S(=O)(=O)c1ccc(Cl)s1 [Example 377, N-({2-(4-Benzylpiperazin-1-yl)-6-[4-(trifluoromethyl)phenyl]pyridin-4-yl}methyl)-1-[(5-chlorothiophen-2-yl)sulfonyl]-4,4-difluoro-L-prolinamide]
36	O=C(NCc1cc(-c2ccc(C(F)(F)F)cc2)nc(N2CCN(Cc3ccccc3Cl)CC2)n1)[C@@H]1CCCN1S(=O)(=O)c1ccc(F)cc1 [Example 50, 1-(4-Fluoro-benzenesulfonyl)-pyrrolidine-2S-carboxylic acid [2-[4-(2-chloro-benzyl)-piperazin-1-yl]-6-(4-trifluoromethyl-phenyl)-pyrimidin-4-ylmethyl]-amide]
1260	N[C@H]1CCN(c2nc(CNC(=O)[C@@H]3CCCN3S(=O)(=O)c3ccc(Cl)s3)cc(-c3ccc(C(F)(F)F)cc3)n2)C1 [Example 39, 1-(5-Chloro-thiophene-2-sulfonyl)-pyrrolidine-2S-carboxylic acid [2-(3S-amino-pyrrolidin-1-yl)-6-(4-trifluoromethyl-phenyl)-pyrimidin-4-ylmethyl]-amide]
6170	CC1CCCN1c1nc(CNC(=O)[C@@H]2CC(F)(F)CN2S(=O)(=O)c2ccc(Cl)s2)cc(-c2ccc(C(F)(F)F)cc2)n1 (stereo partly drawn) [Example 60, 1-(5-Chloro-thiophene-2-sulfonyl)-4,4-difluoro-pyrrolidine-2S-carboxylic acid [2-(2-methyl-pyrrolidin-1-yl)-6-(4-trifluoromethyl-phenyl)-pyrimidin-4-ylmethyl]-amide]
24	O=C(NCc1cc(-c2ccc(C(F)(F)F)cc2)nc(N2CCN(Cc3ccncc3)CC2)n1)[C@@H]1CCCN1S(=O)(=O)c1ccc(F)cc1 [Example 21, 1-(4-Fluoro-benzenesulfonyl)-pyrrolidine-2S-carboxylic acid [2-(4-pyridin-4-ylmethyl-piperazin-1-yl)-6-(4-trifluoromethyl-phenyl)-pyrimidin-4-ylmethyl]-amide]
24	CC(C)CN1CCN(c2nc(CNC(=O)[C@@H]3CCCN3S(=O)(=O)c3ccc(Cl)s3)cc(-c3ccc(C(F)(F)F)cc3)n2)CC1 [Example 24, 1-(5-Chloro-thiophene-2-sulfonyl)-pyrrolidine-2S-carboxylic acid [2-(4-isobutyl-piperazin-1-yl)-6-(4-trifluoromethyl-phenyl)-pyrimidin-4-ylmethyl]-amide]
51	CC(C)CN1CCN(c2nc(CNC(=O)[C@@H]3C=CCN3S(=O)(=O)c3ccc(Cl)s3)cc(-c3ccc(C(F)(F)F)cc3)n2)CC1 [Example 56, 1-(5-Chloro-thiophene-2-sulfonyl)-2,5-dihydro-1H-pyrrole-2S-carboxylic acid [2-(4-isobutyl-piperazin-1-yl)-6-(4-trifluoromethyl-phenyl)-pyrimidin-4-ylmethyl]-amide]
194	CC(C)CN1CCN(c2nc(CNC(=O)[C@@H]3CC(F)(F)CN3S(=O)(=O)c3ccc(Cl)s3)cc(-c3ccc(C(F)(F)F)cc3)n2)CC1 [Example 57, 1-(5-Chloro-thiophene-2-sulfonyl)-4,4-difluoro-pyrrolidine-2S-carboxylic acid [2-(4-isobutyl-piperazin-1-yl)-6-(4-trifluoromethyl-phenyl)-pyrimidin-4-ylmethyl]-amide]
